Reference: patent publication US20260355357A1, “DIAGNOSTIC AGENTS AND USES THEREOF” (HADASIT MEDICAL RESEARCH SERVICES AND DEVELOPMENT LTD., priority 2023, published 2026)

Tests used:
[1] = Biodistribution of deuterated 2-deoxy-D-glucose, 2H-NMR of tissue extracts, mice; type: in vivo, mouse; conditions: [D4]DDG bolus i.v., 43-45 mg/kg (non-labeled 2DG equivalent)
Description: (§1) Mice and rats, males and females at equal numbers, were intravenously injected with a bolus of varying doses of deuterated 2-deoxy-D-glucose (2-DG, DDG, with varying numbers and positions of deuteration). DDGs were provided by CortecNet, France. The injection was performed under sedation in all rats (18) and in 12 of 18 mice, after which the animals woke up within 1 minute. […] Further to euthanasia, the brain, liver, kidneys, heart, and muscle were excised and immediately placed in liquid nitrogen. The frozen tissue samples were kept at −80 °C until further processing.
(§2) Extraction of the water-soluble metabolites and the lipids was carried out using the dual-phase extraction procedure as described previously [Katz-Brull R, et al. Differential routing of choline in implanted breast cancer and normal organs. Article. Magnetic Resonance in Medicine. July 2001; 46(1):31-38. doi:10.1002/mrm.1157]. Briefly, a frozen sample is placed in 10 mL of ice-cold methanol containing 0.4 mM phenyl phosphonic acid for at least 1 hour. The tissue is then homogenized in ice-cold methanol using a tissue homogenizer. Equal volumes of chloroform and water are then added to the sample tube, and the mixture is vortexed and vigorously shaken. The samples are allowed to stand at 4 °C for at least 24 hours for phase separation. The methanol-water phase is aspirated, treated with Chelex to remove divalent ions, and then lyophilized for at least 24 hours. When the samples are dry (as powder), they are redissolved in 0.5 mL of double-distilled water and transferred to 5-mm NMR tubes for scanning. The samples are scanned in a 9.4 T NMR spectrometer.

[2] = Biodistribution of deuterated 2-deoxy-D-glucose, 2H-NMR of tissue extracts, rats; type: in vivo, rat; conditions: for concentration: [D4]DDG bolus i.v., 37-55 mg/kg (non-labeled 2DG equivalent)
Description: as §1, §2

[3] = Adverse effects after bolus intravenous injection of DDG, mice; type: in vivo, mouse; conditions: bolus i.v., 37 mg/kg to 248 mg/kg (mice and rats), awake up to 78 min
Description: as §1
(§3) The animals were observed awake for up to 78 min after the injection. The injection bolus was administered in less than 1 s and ranged from 0.1 mL for mice (ca. 25-40 g) to 0.6 mL for rats (ca. 120-160 g).

[4] = Adverse effects after bolus intravenous injection of DDG, rats; type: in vivo, rat; conditions: bolus i.v., 37 mg/kg to 248 mg/kg (mice and rats), awake up to 78 min
Description: as §1, §3

[5] = tested on: human brain; conditions: in vivo; cited from earlier work
[6] = n=2, read-out: concentration in the heart

SMILES | concentration ([1]; n=1, read-out: concentration in the kidneys) [µM] | concentration [1, 6] [µM] | concentration ([1]; n=2, read-out: concentration in the liver) [µM] | 2H-NMR signal in rat brain extract ([2]; FIG. 7, 45 mg/kg, awake 36 min, 9.4 T) | 2H-NMR signal in rat brain extract ([2]; FIG. 7 legend, awake 30 min) | concentration [2, 6] [µM] | concentration ([2]; n=6, read-out: concentration in the brain) [µM] | concentration ([2]; n=6, read-out: concentration in the muscle) [µM] | adverse effects [3] | adverse effects [4] | accumulation in the human brain [5]
[2H]C([2H])(O)[C@H]1OC(O)C[C@@]([2H])(O)[C@]1([2H])O (stereo partly drawn) [[D4]DDG, [3,4,6,6-D4]2-deoxy-D-glucose] | 1790 | 3140 | 230 | due to the deuterons of [D4]DDG | the right signal (full arrow) is of deuterons of [3,4,6,6-D4]2-deoxy-D-glucose | 2700 | 1600 | 80 | no adverse effects | no adverse effects | –
OC[C@H]1OC(O)[C@H](F)[C@@H](O)[C@@H]1O (stereo partly drawn) [[18F]-fluoro-2-deoxy-D-glucose] | – | – | – | – | – | – | – | – | – | – | accumulates at very high levels in the human brain
